Measurements published in ChEMBL document CHEMBL4330132, “5-Keto-3-cyano-2,4-diaminothiophenes as selective maternal embryonic leucine zipper kinase inhibitors” (Bioorg Med Chem Lett, 2019).

How the values were obtained:
[1] = target: Serine/threonine-protein kinase Nek2 (Homo sapiens) (UniProt P51955); assay: Binding affinity to wild-type human partial length NEK2 (M1 to K309 residues) expressed in bacterial expression system assessed as residual binding level at 1 uM by Kinomescan method relative to control
[2] = target: Receptor tyrosine-protein kinase erbB-4 (Homo sapiens) (UniProt Q15303); assay: Binding affinity to wild-type human partial length ERBB4 (L690 to K994 residues) expressed in bacterial expression system assessed as residual binding level at 1 uM by Kinomescan method relative to control
[3] = target: Cyclin-dependent kinase 2 homolog (Plasmodium falciparum (isolate 3D7)) (UniProt P61075); assay: Binding affinity to wild-type Plasmodium falciparum full length PK5 (M1 to N288 residues) expressed in mammalian expression system assessed as residual binding level at 1 uM by Kinomescan method relative to control
[4] = target: Mitogen-activated protein kinase 11 (Homo sapiens) (UniProt Q15759); assay: Binding affinity to wild-type human full length p38-beta (M1 to Q364 residues) expressed in bacterial expression system assessed as residual binding level at 1 uM by Kinomescan method relative to control
[5] = target: Tyrosine-protein kinase Tec (Homo sapiens) (UniProt P42680); assay: Binding affinity to wild-type human partial length TEC (L341 to D620 residues) expressed in bacterial expression system assessed as residual binding level at 1 uM by Kinomescan method relative to control
[6] = target: Casein kinase I isoform alpha (Homo sapiens) (UniProt P48729); assay: Binding affinity to wild-type human partial length CSNK1A1 (M1 to L450 residues) expressed in mammalian expression system assessed as residual binding level at 1 uM by Kinomescan method relative to control
[7] = target: Dual specificity mitogen-activated protein kinase kinase 7 (Homo sapiens) (UniProt O14733); assay: Binding affinity to wild-type human full length MKK7 (M1 to R419 residues) expressed in mammalian expression system assessed as residual binding level at 1 uM by Kinomescan method relative to control
[8] = tested on: Epidermal growth factor receptor (Homo sapiens), P00533 [UNDEFINED MUTATION]; assay: Binding affinity to human partial length EGFR L747-E749del/A750P mutant expressed in bacterial expression system assessed as residual binding level at 1 uM by Kinomescan method relative to control
[9] = target: Phosphatidylinositol 4-phosphate 5-kinase type-1 alpha (Homo sapiens) (UniProt Q99755); assay: Binding affinity to wild-type human full length PIP5K1A (M1 to H562 residues) expressed in bacterial expression system assessed as residual binding level at 1 uM by Kinomescan method relative to control
[10] = target: Serine/threonine-protein kinase MAK (Homo sapiens) (UniProt P20794); assay: Binding affinity to wild-type human partial length MAK (M1 to P314 residues) expressed in bacterial expression system assessed as residual binding level at 1 uM by Kinomescan method relative to control
[11] = target: Cyclin-dependent kinase-like 2 (Homo sapiens) (UniProt Q92772); assay: Binding affinity to wild-type human partial length CDKL2 (M1 to D327 residues) expressed in bacterial expression system assessed as residual binding level at 1 uM by Kinomescan method relative to control
[12] = target: Mitogen-activated protein kinase 13 (Homo sapiens) (UniProt O15264); assay: Binding affinity to wild-type human full length p38-delta (M1 to L365 residues) expressed in bacterial expression system assessed as residual binding level at 1 uM by Kinomescan method relative to control
[13] = target: Cytoplasmic tyrosine-protein kinase BMX (Homo sapiens) (UniProt P51813); assay: Binding affinity to wild-type human full length BMX (M1 to H675 residues) expressed in bacterial expression system assessed as residual binding level at 1 uM by Kinomescan method relative to control
[14] = tested on: Tyrosine-protein kinase ABL1 (Homo sapiens), P00519 [H396P]; assay: Binding affinity to human phosphorylated ABL1 H396P mutant (S229 to K512 residues) expressed in mammalian expression system assessed as residual binding level at 1 uM by Kinomescan method relative to control
[15] = target: Serine/threonine-protein kinase N2 (Homo sapiens) (UniProt Q16513); assay: Binding affinity to wild-type human partial length PKN2 (E634 to C984 residues) expressed in bacterial expression system assessed as residual binding level at 1 uM by Kinomescan method relative to control
[16] = target: Atypical kinase COQ8B, mitochondrial (Homo sapiens) (UniProt Q96D53); assay: Binding affinity to wild-type human full length ADCK4 (M1 to S544 residues) expressed in bacterial expression system assessed as residual binding level at 1 uM by Kinomescan method relative to control
[17] = target: Dual specificity mitogen-activated protein kinase kinase 1 (Homo sapiens) (UniProt Q02750); assay: Binding affinity to wild-type human full length MEK1 (M1 to V393 residues) expressed in mammalian expression system assessed as residual binding level at 1 uM by Kinomescan method relative to control
[18] = target: Ephrin type-A receptor 7 (Homo sapiens) (UniProt Q15375); assay: Binding affinity to wild-type human partial length EPHA7 (Y608 to S912 residues) expressed in bacterial expression system assessed as residual binding level at 1 uM by Kinomescan method relative to control
[19] = target: Proto-oncogene tyrosine-protein kinase receptor Ret (Homo sapiens) (UniProt P07949); assay: Binding affinity to wild-type human partial length RET (E713 to D1014 residues) expressed in bacterial expression system assessed as residual binding level at 1 uM by Kinomescan method relative to control
[20] = target: Tyrosine-protein kinase Blk (Homo sapiens) (UniProt P51451); assay: Binding affinity to wild-type human partial length BLK (G211 to L503 residues) expressed in bacterial expression system assessed as residual binding level at 1 uM by Kinomescan method relative to control
[21] = target: Tyrosine-protein kinase Fes/Fps (Homo sapiens) (UniProt P07332); assay: Binding affinity to wild-type human partial length FES (I527 to R822 residues) expressed in bacterial expression system assessed as residual binding level at 1 uM by Kinomescan method relative to control
[22] = tested on: Epidermal growth factor receptor (Homo sapiens), P00533 [L861Q]; assay: Binding affinity to human partial length EGFR L861Q mutant (R669 to V1011 residues) expressed in bacterial expression system assessed as residual binding level at 1 uM by Kinomescan method relative to control
[23] = tested on: Mast/stem cell growth factor receptor Kit (Homo sapiens), P10721 [D816H]; assay: Binding affinity to human partial length KIT D816H mutant (I571 to D952 residues) expressed in mammalian expression system assessed as residual binding level at 1 uM by Kinomescan method relative to control
[24] = target: Ephrin type-A receptor 1 (Homo sapiens) (UniProt P21709); assay: Binding affinity to wild-type human partial length EPHA1 (V588 to I913 residues) expressed in bacterial expression system assessed as residual binding level at 1 uM by Kinomescan method relative to control

Sequence of Tyrosine-protein kinase Tec (Homo sapiens) (P42680 whole entry, the tested form may be a part, canonical isoform): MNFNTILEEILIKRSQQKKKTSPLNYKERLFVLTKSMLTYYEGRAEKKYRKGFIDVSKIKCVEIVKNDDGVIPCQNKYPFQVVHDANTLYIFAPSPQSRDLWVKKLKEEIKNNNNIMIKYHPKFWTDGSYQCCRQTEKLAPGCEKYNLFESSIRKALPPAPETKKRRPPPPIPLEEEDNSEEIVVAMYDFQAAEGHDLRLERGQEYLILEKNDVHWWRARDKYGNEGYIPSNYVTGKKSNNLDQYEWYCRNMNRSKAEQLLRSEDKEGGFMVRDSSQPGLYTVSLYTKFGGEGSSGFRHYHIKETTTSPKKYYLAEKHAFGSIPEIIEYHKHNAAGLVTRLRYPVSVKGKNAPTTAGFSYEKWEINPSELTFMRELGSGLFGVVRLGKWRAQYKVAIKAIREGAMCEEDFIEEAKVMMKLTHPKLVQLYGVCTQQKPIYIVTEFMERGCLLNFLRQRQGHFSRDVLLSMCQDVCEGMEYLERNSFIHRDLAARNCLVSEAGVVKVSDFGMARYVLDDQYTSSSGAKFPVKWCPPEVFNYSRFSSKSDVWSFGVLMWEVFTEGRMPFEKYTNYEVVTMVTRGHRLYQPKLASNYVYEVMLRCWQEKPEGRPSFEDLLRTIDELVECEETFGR
Sequence of Phosphatidylinositol 4-phosphate 5-kinase type-1 alpha (Homo sapiens) (Q99755 whole entry, the tested form may be a part): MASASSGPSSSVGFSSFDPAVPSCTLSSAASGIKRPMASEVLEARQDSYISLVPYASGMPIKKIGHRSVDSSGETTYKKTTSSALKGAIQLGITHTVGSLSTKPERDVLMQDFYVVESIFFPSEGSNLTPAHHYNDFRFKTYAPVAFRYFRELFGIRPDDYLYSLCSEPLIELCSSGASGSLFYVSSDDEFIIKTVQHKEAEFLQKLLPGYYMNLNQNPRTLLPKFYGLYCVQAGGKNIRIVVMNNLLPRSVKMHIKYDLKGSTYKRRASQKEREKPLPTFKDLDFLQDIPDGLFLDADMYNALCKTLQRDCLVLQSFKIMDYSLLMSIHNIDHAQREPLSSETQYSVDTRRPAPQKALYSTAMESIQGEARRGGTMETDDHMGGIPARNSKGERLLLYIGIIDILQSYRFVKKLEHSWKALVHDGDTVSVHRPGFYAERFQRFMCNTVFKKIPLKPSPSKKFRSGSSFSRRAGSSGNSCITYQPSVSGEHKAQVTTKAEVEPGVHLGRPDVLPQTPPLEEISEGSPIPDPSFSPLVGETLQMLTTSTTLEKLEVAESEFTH
Sequence of Proto-oncogene tyrosine-protein kinase receptor Ret (Homo sapiens) (P07949 whole entry, the tested form may be a part): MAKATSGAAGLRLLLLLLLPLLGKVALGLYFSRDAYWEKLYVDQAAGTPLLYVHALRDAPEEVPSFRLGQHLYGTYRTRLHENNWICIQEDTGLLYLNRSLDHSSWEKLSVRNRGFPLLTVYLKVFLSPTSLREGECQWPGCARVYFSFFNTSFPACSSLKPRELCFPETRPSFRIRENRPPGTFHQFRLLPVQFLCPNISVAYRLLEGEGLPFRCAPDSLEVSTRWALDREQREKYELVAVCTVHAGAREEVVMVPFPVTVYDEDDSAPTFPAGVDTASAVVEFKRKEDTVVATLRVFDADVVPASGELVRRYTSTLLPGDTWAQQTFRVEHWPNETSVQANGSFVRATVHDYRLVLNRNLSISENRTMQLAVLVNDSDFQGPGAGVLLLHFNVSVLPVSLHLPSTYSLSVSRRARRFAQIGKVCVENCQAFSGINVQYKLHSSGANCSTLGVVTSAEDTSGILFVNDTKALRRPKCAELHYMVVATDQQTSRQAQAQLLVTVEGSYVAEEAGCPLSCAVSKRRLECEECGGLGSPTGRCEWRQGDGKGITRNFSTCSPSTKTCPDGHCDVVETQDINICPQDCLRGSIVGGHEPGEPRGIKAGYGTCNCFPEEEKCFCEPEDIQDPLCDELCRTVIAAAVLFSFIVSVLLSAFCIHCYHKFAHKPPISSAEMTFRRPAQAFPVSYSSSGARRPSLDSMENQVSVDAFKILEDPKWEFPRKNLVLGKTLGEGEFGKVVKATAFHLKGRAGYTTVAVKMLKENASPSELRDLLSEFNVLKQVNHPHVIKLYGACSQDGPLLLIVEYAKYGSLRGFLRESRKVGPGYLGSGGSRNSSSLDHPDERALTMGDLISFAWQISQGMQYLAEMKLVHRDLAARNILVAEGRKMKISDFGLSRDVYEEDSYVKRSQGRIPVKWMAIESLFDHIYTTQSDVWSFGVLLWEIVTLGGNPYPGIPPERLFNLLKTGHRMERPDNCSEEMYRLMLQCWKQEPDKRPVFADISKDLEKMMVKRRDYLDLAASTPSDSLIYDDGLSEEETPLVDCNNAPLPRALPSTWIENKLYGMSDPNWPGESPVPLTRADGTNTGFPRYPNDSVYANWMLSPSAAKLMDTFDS
Sequence of Tyrosine-protein kinase Blk (Homo sapiens) (P51451 2-505 limits assumed): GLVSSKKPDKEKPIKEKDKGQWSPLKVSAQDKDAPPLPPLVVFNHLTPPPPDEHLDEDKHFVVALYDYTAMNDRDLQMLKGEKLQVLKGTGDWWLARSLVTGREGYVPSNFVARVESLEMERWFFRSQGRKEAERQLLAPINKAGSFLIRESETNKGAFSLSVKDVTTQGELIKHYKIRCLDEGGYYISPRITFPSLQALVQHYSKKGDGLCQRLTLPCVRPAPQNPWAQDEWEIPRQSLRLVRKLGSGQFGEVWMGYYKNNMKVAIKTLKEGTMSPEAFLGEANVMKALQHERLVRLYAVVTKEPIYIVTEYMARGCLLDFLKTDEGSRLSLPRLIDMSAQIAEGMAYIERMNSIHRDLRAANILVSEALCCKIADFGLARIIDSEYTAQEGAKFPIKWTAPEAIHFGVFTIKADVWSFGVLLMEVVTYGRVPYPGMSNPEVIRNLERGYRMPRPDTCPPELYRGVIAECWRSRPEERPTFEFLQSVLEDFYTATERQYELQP
Sequence of Tyrosine-protein kinase Fes/Fps (Homo sapiens) (P07332 whole entry, the tested form may be a part): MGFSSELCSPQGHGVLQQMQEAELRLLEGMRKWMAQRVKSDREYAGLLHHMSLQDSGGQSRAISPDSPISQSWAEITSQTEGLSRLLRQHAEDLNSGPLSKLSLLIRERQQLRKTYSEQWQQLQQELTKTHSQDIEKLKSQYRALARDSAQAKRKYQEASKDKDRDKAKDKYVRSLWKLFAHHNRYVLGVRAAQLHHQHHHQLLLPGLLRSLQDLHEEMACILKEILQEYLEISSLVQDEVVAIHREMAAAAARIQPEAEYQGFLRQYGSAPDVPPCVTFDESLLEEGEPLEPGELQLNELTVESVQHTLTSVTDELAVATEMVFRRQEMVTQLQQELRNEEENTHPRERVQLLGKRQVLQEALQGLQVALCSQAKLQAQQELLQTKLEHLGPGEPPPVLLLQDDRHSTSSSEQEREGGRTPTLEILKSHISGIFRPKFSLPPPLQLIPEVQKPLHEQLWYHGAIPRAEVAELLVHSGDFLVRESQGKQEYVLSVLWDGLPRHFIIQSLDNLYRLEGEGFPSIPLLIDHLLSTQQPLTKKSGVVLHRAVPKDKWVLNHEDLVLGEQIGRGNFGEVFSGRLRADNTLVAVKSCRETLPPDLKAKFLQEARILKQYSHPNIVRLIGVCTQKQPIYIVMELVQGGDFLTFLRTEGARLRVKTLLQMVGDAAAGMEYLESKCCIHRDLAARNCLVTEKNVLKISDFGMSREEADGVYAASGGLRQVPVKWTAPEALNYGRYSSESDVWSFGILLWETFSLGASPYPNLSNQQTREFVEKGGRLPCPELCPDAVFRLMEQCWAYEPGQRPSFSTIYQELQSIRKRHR
Sequence of Dual specificity mitogen-activated protein kinase kinase 1 (Homo sapiens) (Q02750 whole entry, the tested form may be a part): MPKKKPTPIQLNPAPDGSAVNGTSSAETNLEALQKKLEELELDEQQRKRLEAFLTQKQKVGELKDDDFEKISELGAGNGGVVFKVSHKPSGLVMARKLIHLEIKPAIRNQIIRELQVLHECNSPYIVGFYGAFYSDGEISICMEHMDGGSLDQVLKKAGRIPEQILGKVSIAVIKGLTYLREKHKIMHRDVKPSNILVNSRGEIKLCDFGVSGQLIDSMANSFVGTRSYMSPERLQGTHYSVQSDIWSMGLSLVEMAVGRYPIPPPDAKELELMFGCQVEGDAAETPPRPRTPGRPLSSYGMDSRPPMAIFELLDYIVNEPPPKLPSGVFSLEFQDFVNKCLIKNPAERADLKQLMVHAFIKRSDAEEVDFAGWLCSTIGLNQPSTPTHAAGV
Sequence of Ephrin type-A receptor 7 (Homo sapiens) (Q15375 28-998 limits assumed): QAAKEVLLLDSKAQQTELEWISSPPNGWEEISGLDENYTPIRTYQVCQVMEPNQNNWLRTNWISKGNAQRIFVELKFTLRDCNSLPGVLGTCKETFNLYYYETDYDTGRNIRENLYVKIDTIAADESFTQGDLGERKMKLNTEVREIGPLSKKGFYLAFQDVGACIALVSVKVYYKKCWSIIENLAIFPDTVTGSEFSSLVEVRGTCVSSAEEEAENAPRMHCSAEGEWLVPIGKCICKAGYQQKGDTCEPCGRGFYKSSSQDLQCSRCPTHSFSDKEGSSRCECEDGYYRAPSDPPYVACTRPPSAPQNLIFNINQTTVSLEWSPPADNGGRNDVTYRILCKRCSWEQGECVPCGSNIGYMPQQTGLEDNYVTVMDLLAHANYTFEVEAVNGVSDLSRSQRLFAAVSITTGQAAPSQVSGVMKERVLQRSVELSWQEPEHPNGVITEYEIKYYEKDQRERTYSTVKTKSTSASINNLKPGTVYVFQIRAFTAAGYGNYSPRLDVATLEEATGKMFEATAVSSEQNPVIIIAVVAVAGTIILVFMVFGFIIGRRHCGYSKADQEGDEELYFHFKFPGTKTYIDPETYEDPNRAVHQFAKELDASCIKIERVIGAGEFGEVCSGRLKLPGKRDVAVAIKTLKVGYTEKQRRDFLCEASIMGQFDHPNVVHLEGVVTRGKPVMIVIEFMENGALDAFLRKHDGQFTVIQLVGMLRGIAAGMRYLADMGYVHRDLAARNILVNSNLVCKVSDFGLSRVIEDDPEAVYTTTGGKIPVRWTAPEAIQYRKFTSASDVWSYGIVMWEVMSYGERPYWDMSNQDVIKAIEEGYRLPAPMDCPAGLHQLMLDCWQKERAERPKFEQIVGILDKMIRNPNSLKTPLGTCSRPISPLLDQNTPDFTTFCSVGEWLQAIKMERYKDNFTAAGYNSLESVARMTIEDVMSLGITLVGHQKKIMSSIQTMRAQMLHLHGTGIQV

Q: With `CC(C)Nc1sc(C(=O)c2ccc(Cl)s2)c(N)c1C#N` as the compound, how does the Activity [1] read?
A: 85%

Q: And the Activity [2]?
A: 100%

Q: And the Activity [3]?
A: 94%

Q: And the Activity [4]?
A: 83%

Q: And the Activity [5]?
A: 94%

Q: And the Activity [6]?
A: 100%

Q: What about the Activity [7] of the same compound?
A: 100%

Q: What about the Activity [8] of the same compound?
A: 80%

Q: And the Activity [9]?
A: 81%

Q: And the Activity [10]?
A: 100%

Q: And the Activity [11]?
A: 80%

Q: What about the Activity [12] of the same compound?
A: 100%

Q: And the Activity [13]?
A: 100%

Q: And the Activity [14]?
A: 100%

Q: What about the Activity [15] of the same compound?
A: 73%

Q: What about the Activity [16] of the same compound?
A: 100%

Q: What about the Activity [17] of the same compound?
A: 96%

Q: And the Activity [18]?
A: 82%

Q: And the Activity [19]?
A: 97%

Q: What about the Activity [20] of the same compound?
A: 60%

Q: And the Activity [21]?
A: 98%

Q: What about the Activity [22] of the same compound?
A: 96%

Q: What about the Activity [23] of the same compound?
A: 77%

Q: What about the Activity [24] of the same compound?
A: 95%
